Several values for one entry are separate records, joined by “and”; a condition that tells them apart may be missing. Equal values may be shown once. Read-outs that look alike come from different tables or passages of the source.
What was measured:
[1] = tested on: head-twitch response in mice; type: in vivo, C57BL/6J mice; conditions: intraperitoneal, at all doses tested, first 30 minutes
Excerpt: Method: The head-twitch response in mice was detected via oscillatory signals to characterize hallucinogenic effects. Mice (strain C57BL/6J, purchased from Shanghai Lingchang Biotech Co., Ltd.) were anesthetized with 2% isoflurane. A small portion of the scalp was removed from the center of the dorsal cranium. A custom-made small neodymium magnet (4 mm×4 mm×2 mm) was attached to the center of the dorsal cranium using dental resin. The magnet N-S poles were kept parallel to the dorsoventral aspect of the implant. The mice were allowed to recover for 1 week before testing. To record precise head movements, the mice were placed in a glass beaker with a diameter of 12 cm, surrounded by 150 turns of #30 enameled copper wire. The output signal from the coil was recorded using a PowerLab/4SP instrument installed with LabChart V8.1.16 software. Coil voltage was amplified, low-pass filtered at 10 kHz to remove radio frequency interference, and sampled at 40 kHz. For the detection of head-twitch response in mice, LabChart data were processed with a digital band-pass filter at 40 to 200 Hz. The head-twitch response in mice was identified by searching for sinusoidal wavelets that met the following criteria: 1) containing more than two bipolar peaks; 2) amplitude exceeding background noise level; 3) duration less than 120 milliseconds. 1 hour prior to the test, the mice were transferred to the test room for acclimatization. Subsequently, the mice were placed in the beaker for 30 minutes, and baseline head-twitch response values were recorded. Immediately after baseline recording, the mice were injected intraperitoneally with the test compound, and head-twitch response values were recorded for 1 to 2 hours post-dose, depending on the compound used. Statistical values were taken from the first 30 minutes.

[2] = tested on: corticosterone-exposed mice; assay: tail suspension test after 21 days of corticosterone exposure; type: in vivo, Male C57BL/6 mice
Protocol: Antidepressant efficacy test method: Male C57BL/6 mice (8 weeks old, purchased from Shanghai Lingchang Biotech Co., Ltd.) were administered a solution of corticosterone in their drinking water at a concentration of 25 μg/mL using drinking water bottles for 21 days. Mice were maintained on a 12-hour light cycle. Corticosterone-containing drinking water was refreshed every other day for the first two weeks, and gradually replaced with corticosterone-free drinking water every two days for the last week. […] TST procedure: mice in the control group and the administration group were suspended by their tails with tape for 6 minutes, and their behavior was recorded by a video camera. The immobility time during the last 4 minutes was manually timed and assessed by an observer who was unaware of the treatment conditions.

[3] = for AUMC0-inf / AUMC0-t / Kel: mice
Protocol: (§1) The concentration of the compound in mouse plasma was determined using LC-MS/MS, and the relevant pharmacokinetic parameters were calculated to investigate the pharmacokinetic characteristics of the compound in mice.
(§2) Experimental design: 60 male C57 mice (purchased from Suzhou JOINN Laboratory Animal Co., Ltd.) were randomly divided into groups based on weight, with 3 mice per group. The mice were fasted with water ad libitum for 12 to 14 hours one day before test-article administration and fed 4 hours after the administration. The route of administration was intraperitoneal (IP), with a dosing concentration of 1 mg/mL, and a solvent formulation of 10% DMSO+90% saline.
(§3) Sample collection: 0.1 mL of blood was collected from the orbit under isoflurane anesthesia before and after test-article administration, transferred to EDTA K2 tubes, and placed on an ice bath. The samples were centrifuged at 5000 rpm for 10 minutes at 4° C., and the plasma was collected. […] Prior to analysis, all plasma samples were stored at −80° C.
(§4) Data processing: Drug concentrations in plasma and brain tissues were measured using LC-MS (API4000QTRAP triple quadrupole tandem mass spectrometer, equipped with an electrospray ionization source (ESI)). The data collection and control system software utilized was Analyst 1.5.1 (Applied Biosystems). The sample peak integration in the spectrum was conducted automatically; the ratio of the sample peak area to the internal standard peak area was used as an indicator to perform regression with the concentration of the sample. Regression method: Linear regression with a weighting factor of 1/X^2. Pharmacokinetic parameters were analyzed using a non-compartmental model in WinNonlin Professional v6.3 (Pharsight, USA). Cmax is the measured maximum plasma concentration, the area under the plasma concentration-time curve (AUC(0→0)) was calculated by the trapezoidal method, and Tmax is the time to reach peak plasma concentration after administration. Experimental data are presented as “Mean±Standard Deviation” (Mean±SD, n≥3) or “Mean” (n=2).

in vivo = conditions: male, C57, mouse, ip
Protocol: as §1, §2, §3, §4

5-HT2A receptor [4] = molecular target: T1, 5-HT2A receptor (Homo sapiens (Human), UniProt P28223); assay: cell-based; type: cell-based; conditions: for Emax: HEK-293T, read-out: β-arrestin2 signaling agonistic activity (percentage in parentheses)
Protocol: On the second day, the confluent cells from a 6 cm culture dish were digested and reseeded into a 96-well plate at a volume of 100 μL of culture medium per well. On the third day, the drugs were added for testing. The 96-well plate was taken out from the cell incubator to decant the culture medium. 40 μL of the substrate coelenterazine 400a (final concentration 5 μM) was added to each well, and then 20 μL of different drugs were added sequentially from left to right, ensuring that the final concentration of the drug decreased gradually from bottom to top, with two replicates per treatment. Finally, the prepared samples were loaded on a plate reader for signal quantification. The readout values reflected the recruitment of β-arrestin2 to the membrane or the dissociation of G protein trimer. The former indicated the degree of activation of the downstream β-arrestin2 signaling pathway mediated by the 5-HT2A receptor, and the latter indicated the degree of activation of the downstream G protein signaling pathway mediated by the 5-HT2A receptor.

dopamine D2 receptor = dopamine D2 receptor (Homo sapiens (Human), UniProt P14416); assay: radioligand competitive binding assay, [3H]-Methylspiperone, 293T membranes; conditions: affinity for the dopamine D2 receptor
Protocol: Method: The affinity of the compounds of the present disclosure for the dopamine D2 receptor was determined using a radioligand competitive binding assay as follows. In the first step, a cell membrane component containing dopamine D2 receptor was prepared. […] 48 hours post-transfection, the 10 cm culture dish was taken out from the cell incubator and the cultured cells had expressed the dopamine D2 receptor. The culture medium was aspirated using a vacuum pump, and 3 mL of lysis buffer was added to each culture dish. The cells were then placed in a cold room at 4° C. for 10 minutes. After the cells were detached, they were transferred to a 15 mL centrifuge tube and centrifuged at 1500 rpm for 5 minutes at 4° C., and the supernatant was discarded. The cell pellet was transferred to a tissue homogenizer, and 3 mL of lysis buffer was added. Sufficient grinding was applied to break the cells. The cell suspension was then equally aliquoted into several Eppendorf tubes and centrifuged at 12000 rpm for 5 minutes at 4° C., and the supernatant was discarded. The resulting precipitate was the cell membrane component containing the dopamine D2 receptor. […] The machine readout value reflected the amount of [3H]-Methylspiperone bound on the membrane, and after further data processing, the affinity Ki values of different compounds for the dopamine D2 receptor were obtained.

5-HT2A receptor [5] = molecular target: T1, 5-HT2A receptor; assay: radioligand competitive binding assay, [3H]-LSD, 293T membranes
postsynaptic D2 receptor = postsynaptic D2 receptor (Homo sapiens (Human), UniProt P14416); conditions: postsynaptic D2 receptor antagonist; Li et al., J Med Chem 2014; cited from earlier work
[6] = tested on: depressive episodes associated with bipolar I or II disorder; conditions: Calabrese et al. 2021; cited from earlier work

T1 sequence (P28223 whole entry): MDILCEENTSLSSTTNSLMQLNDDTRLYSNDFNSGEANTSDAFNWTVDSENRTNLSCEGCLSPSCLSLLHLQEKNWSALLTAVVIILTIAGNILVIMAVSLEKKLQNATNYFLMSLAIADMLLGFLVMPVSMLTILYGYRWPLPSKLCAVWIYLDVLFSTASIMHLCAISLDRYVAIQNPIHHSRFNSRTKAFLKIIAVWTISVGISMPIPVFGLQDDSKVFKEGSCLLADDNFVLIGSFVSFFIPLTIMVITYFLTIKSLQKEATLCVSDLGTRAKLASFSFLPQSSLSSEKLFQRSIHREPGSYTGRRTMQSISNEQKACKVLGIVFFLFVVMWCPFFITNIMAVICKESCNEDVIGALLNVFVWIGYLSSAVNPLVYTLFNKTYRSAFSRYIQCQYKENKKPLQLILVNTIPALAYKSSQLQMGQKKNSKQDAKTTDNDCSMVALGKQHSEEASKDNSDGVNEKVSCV
Chain of dopamine D2 receptor (P14416 whole entry, species assumed): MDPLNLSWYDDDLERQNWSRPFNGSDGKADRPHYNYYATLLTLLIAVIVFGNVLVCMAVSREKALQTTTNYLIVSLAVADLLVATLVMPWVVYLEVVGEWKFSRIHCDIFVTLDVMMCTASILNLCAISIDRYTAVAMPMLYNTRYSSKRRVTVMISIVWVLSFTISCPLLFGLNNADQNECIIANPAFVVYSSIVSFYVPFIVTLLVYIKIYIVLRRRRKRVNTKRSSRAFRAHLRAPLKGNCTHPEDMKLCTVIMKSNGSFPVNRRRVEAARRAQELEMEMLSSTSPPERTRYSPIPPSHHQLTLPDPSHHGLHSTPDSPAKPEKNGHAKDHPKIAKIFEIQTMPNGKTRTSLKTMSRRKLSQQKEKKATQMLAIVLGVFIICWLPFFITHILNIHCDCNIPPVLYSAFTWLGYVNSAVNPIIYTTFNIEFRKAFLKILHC
Chain of postsynaptic D2 receptor (P14416 whole entry): as the sequence (P14416 whole entry, species assumed) above

COc1ccccc1CCCN1CC[C@@H]2[C@H](C1)c1cccc3c1N2CCO3 (single isomer, unassigned) [Compound I-23]
hallucinogenic effects (head-twitch response) [1]: did not induce hallucinogenic effects | antidepressant effect in the mouse tail suspension test ([2]; 10 mg/kg single-injection group, after 7 days): remained significant | antidepressant effect in the mouse tail suspension test ([2]; 10 mg/kg single-injection group, after 14 days): remained significant | antidepressant effect in the mouse tail suspension test ([2]; one day after a single administration): significant antidepressant effect | AUMC0-inf ([3]; brain, 5 mg/kg IP): 1698 h · h · ng · g^−1 | AUMC0-t ([3]; brain, 5 mg/kg IP): 1645 h · h · ng · g^−1 | Kel ([3]; brain, 5 mg/kg IP): 0.630 h⁻¹ | MRT ([3]; male, C57, mouse, in vivo, ip, 5 mg/kg): 0.932 h | AUC0-t ([3]; mouse, in vivo, ip, 5 mg/kg): 1816 ng·h/g | AUMC0-inf ([3]; plasma, 5 mg/kg IP): 794 h · h · ng · mL^−1 | AUMC0-t ([3]; plasma, 5 mg/kg IP): 769 h · h · ng · mL^−1 | Kel ([3]; plasma, 5 mg/kg IP): 0.678 h⁻¹ | AUC0-t (in vivo; 5 mg/kg): 537 ng·h/mL | Cmax (in vivo; 5 mg/kg): 272 ng/mL and 1420 ng/g | Tmax (in vivo; 5 mg/kg): 0.5 h | MRT (in vivo; 5 mg/kg): 1.47 h | half-life (in vivo; 5 mg/kg, T1/2, brain, 5 mg/kg IP, mice): 1.1 h | half-life (in vivo; 5 mg/kg, T1/2, plasma, 5 mg/kg IP, mice): 1.02 h

COc1ccccc1CCN1CC[C@H]2[C@@H](C1)c1cccc3c1N2CCN3C [Compound I-3]
Emax (5-HT2A receptor [4]): 39% | Gq signaling agonistic activity (percentage in parentheses) (5-HT2A receptor [4]; value in parentheses): 20.2% | Ki (dopamine D2 receptor): 1550 nM | hallucinogenic effects (head-twitch response) [1]: did not induce hallucinogenic effects | Ki (5-HT2A receptor [5]): < 100 nM

COc1ccccc1CCCN1CC[C@H]2[C@@H](C1)c1cccc3c1N2CCN3C [Compound I-10]
EC50 (5-HT2A receptor [4]): 204 nM | Emax (5-HT2A receptor [4]): 12.7% | Ki (dopamine D2 receptor): 1860 nM | hallucinogenic effects (head-twitch response) [1]: did not induce hallucinogenic effects | AUMC0-inf ([3]; brain, 10 mg/kg IP): 2054 h · h · ng · g^−1 | AUMC0-t ([3]; brain, 10 mg/kg IP): 1979 h · h · ng · g^−1 | Kel ([3]; brain, 10 mg/kg IP): 0.865 h⁻¹ | AUC0-inf ([3]; mouse, in vivo, ip, 10 mg/kg): 1346 ng·h/g | AUC0-t ([3]; mouse, in vivo, ip, 10 mg/kg): 1335 ng·h/g | AUMC0-inf ([3]; plasma, 10 mg/kg IP): 1230 h · h · ng · mL^−1 | AUMC0-t ([3]; plasma, 10 mg/kg IP): 1169 h · h · ng · mL^−1 | Kel ([3]; plasma, 10 mg/kg IP): 0.654 h⁻¹ | AUC0-inf (in vivo; 10 mg/kg): 582 ng·h/mL | AUC0-t (in vivo; 10 mg/kg): 576 ng·h/mL | Cmax (in vivo; 10 mg/kg): 225 ng/mL and 566 ng/g | MRT (in vivo; 10 mg/kg, brain, 10 mg/kg IP, mice): 1.53 h | MRT (in vivo; 10 mg/kg, plasma, 10 mg/kg IP, mice): 2.11 h | half-life (in vivo; 10 mg/kg, T1/2, brain, 10 mg/kg IP, mice): 0.801 h | half-life (in vivo; 10 mg/kg, T1/2, plasma, 10 mg/kg IP, mice): 1.06 h | Tmax (in vivo; 10 mg/kg, tmax, brain, 10 mg/kg IP, mice): 0.5 h | Tmax (in vivo; 10 mg/kg, tmax, plasma, 10 mg/kg IP, mice): 0.083 h | Ki (5-HT2A receptor [5]): < 100 nM

COc1ccccc1CCCN1CC[C@@H]2[C@H](C1)c1cccc3c1N2CCCS3 [Compound I-27, (8aR,12aS)-11-(3-(2-methoxyphenyl)propyl)-6,7,8a,9,10,11,12,12a-octahydro-5H-pyrido[4,3-b][1,4]thiazepino[2,3,4-hi]indole]
EC50 (5-HT2A receptor [4]): 878 nM | Emax (5-HT2A receptor [4]): 35.7% | pathway selectivity: β-arrestin2 recruitment versus G protein signaling (5-HT2A receptor [4]; without activating the G protein signaling pathway): selectively activate the recruitment of β-arrestin2 | Ki (5-HT2A receptor [5]): < 100 nM | Ki (5-HT2A receptor [5]; affinity for the 5-HT2A receptor, [3H]-LSD): 8 nM

CN1CCN2c3c(cccc31)[C@@H]1CN(CCCC(=O)c3ccc(F)cc3)CC[C@@H]12 [lumateperone, Lumateperone]
Ki (postsynaptic D2 receptor): 32 nM | patient response rate [6]: 51.1%

Reference: US20250136601A1 (priority 2022, published 2025)
